Molecular target: T1, YAP-TEAD interaction (full length human TEAD1-Gal4 fusion, full length YAP mutant S127A, S397A) (UniProt P04386+P28347)
T1 construct: The TEAD1 construct was prepared by cloning the full length human TEAD1 cDNA; expressed in transfected cells; host or cells: HEK293 GripTite 293 MSR (Invitrogen R795-07), transiently transfected with pSG5_CMV plasmids
Test: Cell-based TEAD-GAL4 transactivation assay (luciferase reporter, HEK293)
Details: HEK293 cells, compounds 0.1 μM to 30 μM, 24 h, concentration that inhibited the luciferase activity by 50%
Description: To identify inhibitors of YAP-TEAD interaction, a transient transactivation assays was carried out into HEK293 cell line (HEK293 GripTite™ 293 MSR (Invitrogen R795-07)) using plasmids containing the full length TEAD1 sequences, the full length YAP mutant (S127A, S397A) and a luciferase gene reporter. All expression constructs were performed into pSG5 backbone plasmid in which the SV40 promoter was replaced by the CMV promoter. The TEAD1 construct was prepared by cloning the full length human TEAD1 cDNA in fusion with the Gal4 DNA Binding Domain (AA 1-148) into pSG5_CMV to create the TEAD1(FL)_hum_pSG5Gal4_CMV. The full length YAP mutant (S127A, S397A) was also cloned into pSG_5 CMV to create the YAP(FL)_hum_pSG5_[…]. The reporter plasmid GAL4(5×RE)_[…]_pGL3-Basic contains 5 copies of the GAL4 responsive element (5′-TCGGAGGACAGTACTCC-3′) upstream of the thymidine kinase (TK) promoter (−105/+56) inserted in a pGL3-Basic vector. To evaluate the selectivity of our compounds in blocking the YAP-TEAD interaction, a counter-screening protein-protein interaction transactivation assays was also established. Briefly, two other expression plasmids, the pBD-P53 which express the P53 (AA 72-390) in fusion with Gal4 and the pAD-SV40T which express the SV40 large T antigen (AA 84-708,AgT), were created. HEK293 cells were seeded at 5×10^4 cells/well in 96 well plates (assay plates) in DMEM medium containing 4.5 g/L D-glucose, 10% high inactivated (HI) fetal bovine serum 1% Glutamax, 1% non-essential amino acid and 1% sodium pyruvate and 0.5% penicillin/streptomycin 37° C. in a humidified atmosphere of 8% CO2. After 24 h, transfections are performed using Jet-PEI as transfectant (101B-010 Polyplus Transfection), according to the instructions of the manufacturer (N/P=10) and a ratio YAP/TEAD=10 (per well: 50 ng of YAP(FL), 5 ng of TEAD(FL) and 50 ng of reporter plasmid). Six hours after cell transfection, the plates (‘assay plate’) were washed with 100 μl PBS per well and cell were treated with compounds in semi-log from 0.1 μM to 30 μM or DMSO 0.5% as control in DMEM 4.5 g/L D-Glucose without phenol red, 0.3% BSA, 1% glutamax, 1% NEAA, 1% sodium pyruvate. Twenty-four hours later, the luciferase activity was determined after addition of 100 μl of Steady Glo™ luciferase assay system (Promega E2550) according to the manufacturer's directions. Luciferase activity in cell extracts is measured by reading luminescence using the Envision device.
The cellular response was determined by fitting the concentration response curves using a 3-parameter curve fit equation and determining the concentration that inhibited the luciferase activity by 50%.

T1 sequence (P04386+P28347 fused, stated change not applied): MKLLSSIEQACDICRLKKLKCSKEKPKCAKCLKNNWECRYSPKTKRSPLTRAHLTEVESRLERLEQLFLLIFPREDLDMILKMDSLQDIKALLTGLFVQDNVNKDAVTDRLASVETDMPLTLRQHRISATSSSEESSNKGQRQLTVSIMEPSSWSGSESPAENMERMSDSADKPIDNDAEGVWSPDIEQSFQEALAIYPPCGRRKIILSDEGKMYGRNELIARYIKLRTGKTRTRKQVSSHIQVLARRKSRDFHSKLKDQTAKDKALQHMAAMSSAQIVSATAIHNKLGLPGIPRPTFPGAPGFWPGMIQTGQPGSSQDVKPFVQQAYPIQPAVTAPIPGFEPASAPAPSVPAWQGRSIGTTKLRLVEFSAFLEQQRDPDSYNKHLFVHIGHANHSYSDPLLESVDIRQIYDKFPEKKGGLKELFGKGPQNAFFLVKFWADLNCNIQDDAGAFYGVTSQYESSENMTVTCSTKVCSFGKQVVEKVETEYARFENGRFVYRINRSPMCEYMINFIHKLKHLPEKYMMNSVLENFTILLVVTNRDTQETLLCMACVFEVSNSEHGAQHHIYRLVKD

Row | SMILES | IC50 [µM]
1 | CSc1cc(/C=N/N(C)C2=NS(=O)(=O)c3ccccc32)ccc1F [Ex 86, N-[(E)-(4-fluoro-3-methylsulfanyl-phenyl)methyleneamino]-N-methyl-1,1-dioxo-1,2-benzothiazol-3-amine] | 1.31
2 | COc1cc(/C=N/N(CC(C)C)C2=NS(=O)(=O)c3cc(OCB(O)O)ccc32)ccc1F [Ex 92, [3-[[(E)-(4-fluoro-3-methoxy-phenyl)methyleneamino]-isobutyl-amino]-1,1-dioxo-1,2-benzothiazol-6-yl]oxymethylboronic acid] | 0.86
3 | COc1cc(/C=N/N(CC(C)C)C2=NS(=O)(=O)c3ccc(B(O)O)cc32)ccc1F [Ex 94, [3-[[(E)-(4-fluoro-3-methoxy-phenyl)methyleneamino]-isobutyl-amino]-1,1-dioxo-1,2-benzothiazol-5-yl]boronic acid] | 3.31
4 | COc1cc(/C=N/N(CC(C)C)C2=NS(=O)(=O)c3ccc(OCB(O)O)cc32)ccc1F [Ex 95, [3-[[(E)-(4-fluoro-3-methoxy-phenyl)methyleneamino]-isobutyl-amino]-1,1-dioxo-1,2-benzothiazol-5-yl]oxymethylboronic acid] | 1.35
5 | CCC1(CC)C(=O)Nc2ccc(/C=N/N(CC(C)C)C3=NS(=O)(=O)c4cc(O)ccc43)cc21 [Ex 96, 3,3-diethyl-5-[(E)-[(6-hydroxy-1,1-dioxo-1,2-benzothiazol-3-yl)-isobutyl-hydrazono]methyl]indolin-2-one] | 10.4
6 | CCOc1ccc2c(c1)S(=O)(=O)N=C2N(CC(C)C)/N=C/c1ccc2c(c1)C(CC)(CC)C(=O)N2 [Ex 97, 5-[(E)-[(6-ethoxy-1,1-dioxo-1,2-benzothiazol-3-yl)-isobutyl-hydrazono]methyl]-3,3-diethyl-indolin-2-one] | 2.77
7 | CCC1(CC)C(=O)Nc2ccc(/C=N/N(CC(C)C)C3=NS(=O)(=O)c4cc(OC)ccc43)cc21 [Ex 98, 3,3-diethyl-5-[(E)-[isobutyl-(6-methoxy-1,1-dioxo-1,2-benzothiazol-3-yl) hydrazono]methyl]indolin-2-one] | 3.92
8 | CCC1(CC)C(=O)Nc2ccc(/C=N/N(CC(C)C)C3=NS(=O)(=O)c4cc(OC(C)C)ccc43)cc21 [Ex 99, 3,3-diethyl-5-[(E)-[isobutyl-(6-isopropoxy-1,1-dioxo-1,2-benzothiazol-3-yl)hydrazono]methyl]indolin-2-one] | 4.14
9 | COc1cc(/C=N/N(C2=NS(=O)(=O)c3cc(B(O)O)ccc32)C(C)C)ccc1F [Ex 102, [3-[[(E)-(4-fluoro-3-methoxy-phenyl)methyleneamino]-isopropyl-amino]-1,1-dioxo-1,2-benzothiazol-6-yl]boronic acid] | 3.01
10 | CNC(=O)COc1ccc2c(c1)C(N(CC(C)C)/N=C/c1ccc(F)c(OC)c1)=NS2(=O)=O [Ex 105, 2-[[3-[[(E)-(4-fluoro-3-methoxy-phenyl)methyleneamino]-isobutyl-amino]-1,1-dioxo-1,2-benzothiazol-5-yl]oxy]-N-methyl-acetamide] | 4.94
11 | COc1cc(/C=N/N(CC(C)C)C2=NS(=O)(=O)c3cc(OCB4OC(=O)CN(C)CC(=O)O4)ccc32)ccc1F [Ex 106, 2-[[3-[[(E)-(4-fluoro-3-methoxy-phenyl)methyleneamino]-isobutyl-amino]-1,1-dioxo-1,2-benzothiazol-6-yl]oxymethyl]-6-methyl-1,3,6,2-dioxaza-borocane-4,8-dione] | 0.94
12 | CSc1cc(/C=N/N(CC(C)C)C2=NS(=O)(=O)c3ccccc32)ccc1F [Ex 107, N-[(E)-(4-fluoro-3-methylsulfanyl-phenyl)methyleneamino]-N-isobutyl-1,1-dioxo-1,2-benzothiazol-3-amine] | 2.14
13 | COc1cc(C2=NN(C3=NS(=O)(=O)c4cc(B(O)O)ccc43)C(C)CC2)ccc1F (centres unmarked) [Ex 109, [3-[6-(4-fluoro-3-methoxy-phenyl)-3-methyl-4,5-dihydro-3H-pyridazin-2-yl]-1,1-dioxo-1,2-benzothiazol-6-yl]boronic acid] | 0.7
14 | COc1cc(C2=NN(C3=NS(=O)(=O)c4ccccc43)CC(C)(C)C2)ccc1F [Ex 110, 3-[6-(4-fluoro-3-methoxy-phenyl)-4,4-dimethyl-3,5-dihydropyridazin-2-yl]-1,2-benzothiazole 1,1-dioxide] | 3.23
15 | COCn1c(=O)n(C2CCC2)c2cc(/C=N/N(C)C3=NS(=O)(=O)c4ccccc43)ccc21 [Ex 111, 3-cyclobutyl-5-[(E)-[(1,1-dioxo-1,2-benzothiazol-3-yl)-methyl-hydrazono]methyl]-1-(methoxymethyl)benzimidazol-2-one] | 8.57
16 | CN(/N=C/c1ccc2c(c1)n(C1CCC1)c(=O)n2COC(=O)C(C)(C)C)C1=NS(=O)(=O)c2ccccc21 [Ex 113, [3-cyclobutyl-5-[(E)-[(1,1-dioxo-1,2-benzothiazol-3-yl)-methyl-hydrazono]methyl]-2-oxo-benzimidazol-1-yl]methyl 2,2-dimethylpropanoate] | 4
17 | CCCC(=O)OCn1c(=O)n(C2CCC2)c2cc(/C=N/N(C)C3=NS(=O)(=O)c4ccccc43)ccc21 [Ex 114, [3-cyclobutyl-5-[(E)-[(1,1-dioxo-1,2-benzothiazol-3-yl)-methyl-hydrazono]methyl]-2-oxo-benzimidazol-1-yl]methyl butanoate] | 4.95
18 | CCOCn1c(=O)n(C2CCC2)c2cc(/C=N/N(C)C3=NS(=O)(=O)c4ccccc43)ccc21 [Ex 116, 3-cyclobutyl-5-[(E)-[(1,1-dioxo-1,2-benzothiazol-3-yl)-methyl-hydrazono]methyl]-1-(ethoxymethyl)benzimidazol-2-one] | 5.03

Same assay, conditions: HEK293 cells, compounds 0.1 μM to 30 μM, 24 h, luciferase activity

Row | SMILES | Max Act. (%), TEAD-GAL4 Transactivation activity [%]
19 | COc1cc(/C=N/N(CC(C)C)C2=NS(=O)(=O)c3cc(OCC(N)=O)ccc32)ccc1F [Ex 104, 2-[[3-[[(E)-(4-fluoro-3-methoxy-phenyl)methyleneamino]-isobutyl. amino]-1,1-dioxo-1,2-benzothiazol-6-yl]oxy]acetamide] | 72

Test system: not given
Test: not given
Details: not given

Row | SMILES | melting point [°C]
20 | CN(/N=C/c1ccc(N2CCOCC2)cc1)C1=NS(=O)(=O)c2ccccc21 [Ex 3, N-methyl-N-[(E)-(4-morpholinophenyl)methyleneamino]-1,1-dioxo-1,2-benzothiazol-3-amine] | 258 to 261
21 | CN(/N=C/c1cnc(N2CCOCC2)s1)C1=NS(=O)(=O)c2ccccc21 [Ex 7, N-methyl-N-[(E)-(2-morpholinothiazol-5-yl)methyleneamino]-1,1-dioxo-1,2-benzothiazol-3-amine] | 281 to 300
22 | CNC(=O)Cc1ccc(/C=N/N(C)C2=NS(=O)(=O)c3ccccc32)cc1OC [Ex 20, 2-[4-[(E)-[(1,1-dioxo-1,2-benzothiazol-3-yl)-methyl-hydrazono]methyl]-2-methoxy-phenyl]-N-methyl-acetamide] | 228 to 231
23 | CC1NC(=O)c2ccc(/C=N/N(C)C3=NS(=O)(=O)c4ccccc43)cc21 (centres unmarked) [Ex 31, 5-[(E)-[(1,1-dioxo-1,2-benzothiazol-3-yl)-methyl-hydrazono]methyl]-3-methyl-isoindolin-1-one] | > 298
24 | CN(/N=C/c1ccc2c(c1)C(C)(C)NC2=O)C1=NS(=O)(=O)c2ccccc21 [Ex 32, 5-[(E)-[(1,1-dioxo-1,2-benzothiazol-3-yl)-methyl-hydrazono]methyl]-3,3-dimethyl-isoindolin-1-one] | > 295
25 | CN(/N=C/c1ccc2c(c1)C(C)(C)C(=O)N2)C1=NS(=O)(=O)c2ccccc21 [Ex 33, 5-[(E)-[(1,1-dioxo-1,2-benzothiazol-3-yl)-methyl-hydrazono]methyl]-3,3-dimethyl-indolin-2-one] | > 300
26 | CCC1(CC)C(=O)Nc2ccc(/C=N/N(C)C3=NS(=O)(=O)c4ccccc43)cc21 [Ex 34, 5-[(E)-[(1,1-dioxo-1,2-benzothiazol-3-yl)-methyl-hydrazono]methyl]-3,3-diethyl-indolin-2-one] | 288 to 289
